Assay [1] relates to Epidermal growth factor receptor (Homo sapiens), P00533 [UNDEFINED MUTATION]. The following applies: dose 1.0 µM.
The target of assay [2] is Serine/threonine-protein kinase RIO1 (Homo sapiens) (UniProt Q9BRS2). Description: Inhibition of RIOK1 (unknown origin) at 1 uM by Ambit Kinomescan binding assay relative to control.
For assay [3], the target named is Ribosomal protein S6 kinase alpha-1 (Homo sapiens) (UniProt Q15418). In words: Inhibition of RSK1 Domain 2 K2 labeling site in human Huh-7 cells at 10 uM by KiNativ Profiling analysis relative to control. The assay is classed as cell-based.
Assay [4] has as its target Tyrosine-protein kinase receptor Tie-1 (Homo sapiens) (UniProt P35590). Description: Inhibition of TIE1 (unknown origin) at 10 uM by Ambit Kinomescan binding assay relative to control; values are per cent of control.
Assay [5] deals with Mitogen-activated protein kinase kinase kinase 4 (Homo sapiens) (UniProt Q9Y6R4). In words: Inhibition of MAP3K4 K2 labeling site in human Huh-7 cells at 1 uM by KiNativ Profiling analysis relative to control. The assay is classed as cell-based.
For assay [6], the target named is T1, Serine/threonine-protein kinase Nek9 (Homo sapiens) (UniProt Q8TD19).
T1 sequence (whole entry): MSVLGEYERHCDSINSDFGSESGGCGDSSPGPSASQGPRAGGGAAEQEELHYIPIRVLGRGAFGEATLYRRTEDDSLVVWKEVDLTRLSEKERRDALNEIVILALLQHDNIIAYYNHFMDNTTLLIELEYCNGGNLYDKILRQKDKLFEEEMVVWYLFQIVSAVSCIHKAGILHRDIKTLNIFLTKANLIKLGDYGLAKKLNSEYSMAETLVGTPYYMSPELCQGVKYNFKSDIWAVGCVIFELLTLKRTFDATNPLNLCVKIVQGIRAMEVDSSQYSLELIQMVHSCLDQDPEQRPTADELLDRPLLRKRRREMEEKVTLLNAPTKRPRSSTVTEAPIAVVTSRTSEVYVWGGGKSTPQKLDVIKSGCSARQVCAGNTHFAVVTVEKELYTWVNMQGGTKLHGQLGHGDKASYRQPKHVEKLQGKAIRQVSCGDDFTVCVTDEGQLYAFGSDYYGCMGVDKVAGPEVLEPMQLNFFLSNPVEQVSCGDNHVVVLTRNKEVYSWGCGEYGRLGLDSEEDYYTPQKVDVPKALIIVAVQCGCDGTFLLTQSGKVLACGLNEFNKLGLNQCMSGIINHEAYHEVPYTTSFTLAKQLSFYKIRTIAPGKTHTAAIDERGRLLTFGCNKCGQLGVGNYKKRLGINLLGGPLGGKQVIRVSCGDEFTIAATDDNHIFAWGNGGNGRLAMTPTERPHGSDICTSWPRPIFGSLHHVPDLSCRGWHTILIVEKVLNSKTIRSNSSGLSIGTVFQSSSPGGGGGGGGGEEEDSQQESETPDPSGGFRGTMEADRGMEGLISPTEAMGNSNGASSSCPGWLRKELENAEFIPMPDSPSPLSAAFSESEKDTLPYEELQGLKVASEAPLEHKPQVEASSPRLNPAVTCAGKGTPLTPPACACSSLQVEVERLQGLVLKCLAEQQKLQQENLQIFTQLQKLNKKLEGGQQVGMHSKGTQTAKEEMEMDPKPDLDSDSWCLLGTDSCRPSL
In words: Inhibition of NEK9 (unknown origin) at 10 uM by Ambit Kinomescan binding assay.

Assay [7] concerns the target Cyclin-dependent kinase 14 (Homo sapiens) (UniProt O94921). Description: Inhibition of PFTAIRE1 Lys2 labeling site in human A-375 cells at 0.05 uM by KiNativ Profiling analysis relative to control.
Assay [8] concerns the target Calcium/calmodulin-dependent protein kinase type II subunit gamma (Homo sapiens) (UniProt Q13555). In words: Inhibition of CaMK2g Lys1 labeling site harbouring TSTQEYAAKIINTK in human Huh-7 cell lysate at 1 uM by KiNativ Profiling analysis relative to control. It is filed as subcellular.
For assay [9], the target named is T2, PAN2-PAN3 deadenylation complex subunit PAN3 (Homo sapiens) (UniProt Q58A45).
T2 sequence (whole entry): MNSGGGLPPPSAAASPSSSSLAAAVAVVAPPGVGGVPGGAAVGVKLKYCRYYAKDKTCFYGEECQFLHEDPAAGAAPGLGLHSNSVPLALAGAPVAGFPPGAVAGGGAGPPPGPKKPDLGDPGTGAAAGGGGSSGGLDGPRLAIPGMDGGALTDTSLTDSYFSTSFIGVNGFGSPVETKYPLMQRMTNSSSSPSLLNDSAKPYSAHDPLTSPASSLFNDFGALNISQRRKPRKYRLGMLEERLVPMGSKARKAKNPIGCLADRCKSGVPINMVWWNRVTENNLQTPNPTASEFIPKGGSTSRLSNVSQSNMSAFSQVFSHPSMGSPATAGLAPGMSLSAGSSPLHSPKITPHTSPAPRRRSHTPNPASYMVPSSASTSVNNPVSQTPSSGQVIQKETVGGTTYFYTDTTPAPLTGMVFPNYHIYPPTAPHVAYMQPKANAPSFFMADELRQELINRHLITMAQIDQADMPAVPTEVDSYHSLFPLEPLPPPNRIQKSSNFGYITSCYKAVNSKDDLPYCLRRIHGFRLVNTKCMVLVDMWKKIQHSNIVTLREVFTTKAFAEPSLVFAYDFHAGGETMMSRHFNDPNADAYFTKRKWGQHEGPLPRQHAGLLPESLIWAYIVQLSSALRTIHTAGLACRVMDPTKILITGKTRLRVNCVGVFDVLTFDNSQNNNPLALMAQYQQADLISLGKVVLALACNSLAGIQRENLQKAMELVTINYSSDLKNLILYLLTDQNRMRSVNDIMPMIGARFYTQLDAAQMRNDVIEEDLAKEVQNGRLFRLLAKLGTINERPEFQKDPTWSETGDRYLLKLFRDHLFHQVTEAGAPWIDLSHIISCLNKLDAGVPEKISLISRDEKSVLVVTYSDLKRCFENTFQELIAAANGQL
In words: Inhibition of PAN3 Protein Kinase Domain labeling site in human Huh-7 cell lysate at 1 uM by KiNativ Profiling analysis relative to control. The assay is classed as subcellular.

Assay [10] has as its target Dual specificity mitogen-activated protein kinase kinase 1 (Homo sapiens) (UniProt Q02750). Description: Inhibition of MAP2K1 Lys2 labeling site harbouring IMHRDVKPSNILVNSR in human Huh-7 cells at 1 uM by KiNativ Profiling analysis relative to control. It is filed as cell-based.
In assay [11] the target is Serine/threonine-protein kinase 4 (Homo sapiens) (UniProt Q13043). In words: Inhibition of MST1 Lys2 labeling site harbouring IHRDIKAGNILLNTEGHAK in human Huh-7 cells at 1 uM by KiNativ Profiling analysis relative to control.
The target of assay [12] is Serine/threonine-protein kinase/endoribonuclease IRE1 (Homo sapiens) (UniProt O75460). Description: Inhibition of IRE1 Lys2 labeling site in human Huh-7 cells at 1 uM by KiNativ Profiling analysis relative to control. It is filed as cell-based.

Activity calls are given as the source filed them. No cut-off for these calls is given here.

Consider three compounds from ChEMBL document CHEMBL5696442, “Discovery of type II inhibitors of TGFβ-activated kinase 1 (TAK1) and mitogen-activated protein kinase kinase kinase kinase 2 (MAP4K2)” (J Med Chem, 2015).

Broadly, the inhibition is the relative decrease from the control value, in per cent. As a reminder, the residual activity is the signal under treatment as a percentage of the control signal. Low values mean a large loss of activity, high ones a small loss of activity.

Chain of Serine/threonine-protein kinase 4 (Homo sapiens) (Q13043 whole entry, looked up): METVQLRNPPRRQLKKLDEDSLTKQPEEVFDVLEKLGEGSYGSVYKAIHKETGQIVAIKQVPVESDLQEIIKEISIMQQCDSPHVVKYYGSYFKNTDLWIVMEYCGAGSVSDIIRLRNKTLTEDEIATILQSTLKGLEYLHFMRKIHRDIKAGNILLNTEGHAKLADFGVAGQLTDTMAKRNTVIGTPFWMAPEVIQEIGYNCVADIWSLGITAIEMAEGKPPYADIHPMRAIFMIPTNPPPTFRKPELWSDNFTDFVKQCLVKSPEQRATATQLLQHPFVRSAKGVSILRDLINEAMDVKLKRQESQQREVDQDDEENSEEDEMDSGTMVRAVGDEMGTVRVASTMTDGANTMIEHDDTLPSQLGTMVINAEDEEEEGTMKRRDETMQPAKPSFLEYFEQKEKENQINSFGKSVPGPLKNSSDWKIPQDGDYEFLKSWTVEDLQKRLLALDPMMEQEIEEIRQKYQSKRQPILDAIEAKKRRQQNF
Chain of Ribosomal protein S6 kinase alpha-1 (Homo sapiens) (Q15418 whole entry, the tested form may be a part): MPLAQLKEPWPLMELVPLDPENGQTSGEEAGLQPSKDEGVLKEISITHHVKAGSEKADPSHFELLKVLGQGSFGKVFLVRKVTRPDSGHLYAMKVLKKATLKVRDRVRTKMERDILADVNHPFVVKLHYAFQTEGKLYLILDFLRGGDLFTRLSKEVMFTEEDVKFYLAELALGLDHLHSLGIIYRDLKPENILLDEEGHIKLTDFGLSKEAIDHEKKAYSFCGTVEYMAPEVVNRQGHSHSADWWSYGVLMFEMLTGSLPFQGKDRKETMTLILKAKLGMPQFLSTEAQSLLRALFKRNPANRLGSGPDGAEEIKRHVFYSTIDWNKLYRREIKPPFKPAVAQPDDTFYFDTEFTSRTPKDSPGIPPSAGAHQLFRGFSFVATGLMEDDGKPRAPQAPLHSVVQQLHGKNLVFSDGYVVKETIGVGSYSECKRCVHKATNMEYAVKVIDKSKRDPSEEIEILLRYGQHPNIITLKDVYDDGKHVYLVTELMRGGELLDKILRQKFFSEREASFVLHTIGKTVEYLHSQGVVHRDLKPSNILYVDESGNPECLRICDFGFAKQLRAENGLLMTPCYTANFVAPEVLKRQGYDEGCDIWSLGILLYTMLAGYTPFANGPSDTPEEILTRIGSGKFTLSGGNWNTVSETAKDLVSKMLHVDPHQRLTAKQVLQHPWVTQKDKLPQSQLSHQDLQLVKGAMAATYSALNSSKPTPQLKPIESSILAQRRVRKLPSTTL
Chain of Serine/threonine-protein kinase RIO1 (Homo sapiens) (Q9BRS2 whole entry, the tested form may be a part): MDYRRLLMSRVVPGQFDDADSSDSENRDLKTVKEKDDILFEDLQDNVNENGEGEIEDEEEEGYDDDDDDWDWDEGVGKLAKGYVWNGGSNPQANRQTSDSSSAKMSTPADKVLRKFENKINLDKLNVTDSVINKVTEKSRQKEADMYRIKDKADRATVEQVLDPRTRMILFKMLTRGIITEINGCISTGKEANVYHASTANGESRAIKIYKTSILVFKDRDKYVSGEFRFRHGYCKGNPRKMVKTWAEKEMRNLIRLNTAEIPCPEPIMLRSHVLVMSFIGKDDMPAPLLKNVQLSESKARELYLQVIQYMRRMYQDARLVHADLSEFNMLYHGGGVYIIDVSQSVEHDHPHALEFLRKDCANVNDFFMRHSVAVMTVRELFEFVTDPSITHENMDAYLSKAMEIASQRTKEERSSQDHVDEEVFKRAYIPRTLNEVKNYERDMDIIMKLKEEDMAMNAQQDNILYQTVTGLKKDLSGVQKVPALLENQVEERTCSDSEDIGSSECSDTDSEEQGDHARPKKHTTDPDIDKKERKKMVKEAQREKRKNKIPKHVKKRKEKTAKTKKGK
Chain of Calcium/calmodulin-dependent protein kinase type II subunit gamma (Homo sapiens) (Q13555 whole entry): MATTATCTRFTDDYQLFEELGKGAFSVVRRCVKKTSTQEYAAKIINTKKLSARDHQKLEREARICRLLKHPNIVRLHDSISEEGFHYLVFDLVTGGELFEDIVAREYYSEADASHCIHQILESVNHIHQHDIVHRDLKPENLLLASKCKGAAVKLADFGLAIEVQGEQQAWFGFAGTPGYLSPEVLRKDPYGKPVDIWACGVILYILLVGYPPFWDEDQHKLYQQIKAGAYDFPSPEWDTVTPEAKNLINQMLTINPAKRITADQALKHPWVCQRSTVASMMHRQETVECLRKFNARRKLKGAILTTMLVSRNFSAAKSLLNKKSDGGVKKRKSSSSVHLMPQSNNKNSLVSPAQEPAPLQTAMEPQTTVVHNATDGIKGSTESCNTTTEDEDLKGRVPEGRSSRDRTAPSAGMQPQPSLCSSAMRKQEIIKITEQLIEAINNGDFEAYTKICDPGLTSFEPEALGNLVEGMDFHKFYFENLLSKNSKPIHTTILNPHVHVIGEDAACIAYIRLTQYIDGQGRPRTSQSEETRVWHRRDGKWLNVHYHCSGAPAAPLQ
Chain of Epidermal growth factor receptor (Homo sapiens), P00533 [UNDEFINED MUTATION] (P00533 whole entry, looked up, change not shown): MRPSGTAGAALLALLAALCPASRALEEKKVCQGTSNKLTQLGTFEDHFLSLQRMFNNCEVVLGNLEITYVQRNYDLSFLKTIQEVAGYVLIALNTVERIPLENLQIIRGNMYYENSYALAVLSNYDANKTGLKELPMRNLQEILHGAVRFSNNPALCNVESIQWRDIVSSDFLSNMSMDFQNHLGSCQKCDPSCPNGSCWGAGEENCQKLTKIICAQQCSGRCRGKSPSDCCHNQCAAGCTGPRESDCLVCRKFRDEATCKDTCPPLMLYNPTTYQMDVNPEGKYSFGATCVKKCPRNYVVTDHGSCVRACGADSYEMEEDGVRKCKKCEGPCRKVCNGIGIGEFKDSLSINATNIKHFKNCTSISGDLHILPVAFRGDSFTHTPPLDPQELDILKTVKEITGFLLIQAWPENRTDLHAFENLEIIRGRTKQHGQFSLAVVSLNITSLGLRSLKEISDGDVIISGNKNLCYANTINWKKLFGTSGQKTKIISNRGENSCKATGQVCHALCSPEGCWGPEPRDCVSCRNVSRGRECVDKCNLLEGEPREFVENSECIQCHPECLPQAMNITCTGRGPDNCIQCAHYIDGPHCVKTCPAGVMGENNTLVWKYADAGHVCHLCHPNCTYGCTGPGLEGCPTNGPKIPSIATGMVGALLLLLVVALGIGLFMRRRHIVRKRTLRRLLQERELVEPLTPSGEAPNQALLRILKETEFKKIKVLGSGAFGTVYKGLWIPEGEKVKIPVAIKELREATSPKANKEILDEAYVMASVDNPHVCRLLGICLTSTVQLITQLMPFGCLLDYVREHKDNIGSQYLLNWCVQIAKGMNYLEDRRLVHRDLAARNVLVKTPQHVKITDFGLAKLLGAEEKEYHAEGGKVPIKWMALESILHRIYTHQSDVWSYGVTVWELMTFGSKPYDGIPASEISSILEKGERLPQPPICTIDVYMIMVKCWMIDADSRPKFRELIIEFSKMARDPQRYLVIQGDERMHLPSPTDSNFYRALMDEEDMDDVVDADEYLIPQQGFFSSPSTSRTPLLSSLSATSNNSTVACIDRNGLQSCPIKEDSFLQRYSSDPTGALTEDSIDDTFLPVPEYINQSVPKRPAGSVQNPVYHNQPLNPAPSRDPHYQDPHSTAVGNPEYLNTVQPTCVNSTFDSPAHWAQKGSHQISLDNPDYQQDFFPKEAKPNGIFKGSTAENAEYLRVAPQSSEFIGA
Chain of Serine/threonine-protein kinase/endoribonuclease IRE1 (Homo sapiens) (O75460 19-977 limits assumed): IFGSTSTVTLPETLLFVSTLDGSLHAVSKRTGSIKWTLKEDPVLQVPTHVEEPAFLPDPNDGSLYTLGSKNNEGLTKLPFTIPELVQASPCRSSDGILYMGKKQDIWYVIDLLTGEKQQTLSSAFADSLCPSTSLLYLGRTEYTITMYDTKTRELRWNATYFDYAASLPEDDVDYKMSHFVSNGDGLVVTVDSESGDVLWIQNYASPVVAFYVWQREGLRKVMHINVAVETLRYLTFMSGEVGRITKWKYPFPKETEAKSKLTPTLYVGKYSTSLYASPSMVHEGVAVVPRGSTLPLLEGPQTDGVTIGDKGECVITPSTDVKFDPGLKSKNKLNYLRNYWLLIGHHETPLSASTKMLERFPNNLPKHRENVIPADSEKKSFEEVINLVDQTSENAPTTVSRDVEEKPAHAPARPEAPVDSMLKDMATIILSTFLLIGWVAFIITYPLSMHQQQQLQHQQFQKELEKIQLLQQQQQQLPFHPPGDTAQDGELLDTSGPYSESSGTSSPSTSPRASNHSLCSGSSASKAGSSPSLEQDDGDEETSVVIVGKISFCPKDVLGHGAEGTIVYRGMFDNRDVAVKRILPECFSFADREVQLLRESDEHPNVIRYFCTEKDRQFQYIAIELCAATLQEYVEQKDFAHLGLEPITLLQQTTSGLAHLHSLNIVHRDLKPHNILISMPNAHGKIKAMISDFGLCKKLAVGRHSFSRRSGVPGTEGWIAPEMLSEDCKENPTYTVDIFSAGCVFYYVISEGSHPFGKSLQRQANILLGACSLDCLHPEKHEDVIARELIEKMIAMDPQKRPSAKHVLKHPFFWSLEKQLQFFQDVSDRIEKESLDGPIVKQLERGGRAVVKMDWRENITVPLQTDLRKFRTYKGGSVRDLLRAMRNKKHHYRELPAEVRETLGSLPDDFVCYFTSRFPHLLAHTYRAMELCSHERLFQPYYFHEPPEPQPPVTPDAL
Chain of Cyclin-dependent kinase 14 (Homo sapiens) (O94921 whole entry, looked up): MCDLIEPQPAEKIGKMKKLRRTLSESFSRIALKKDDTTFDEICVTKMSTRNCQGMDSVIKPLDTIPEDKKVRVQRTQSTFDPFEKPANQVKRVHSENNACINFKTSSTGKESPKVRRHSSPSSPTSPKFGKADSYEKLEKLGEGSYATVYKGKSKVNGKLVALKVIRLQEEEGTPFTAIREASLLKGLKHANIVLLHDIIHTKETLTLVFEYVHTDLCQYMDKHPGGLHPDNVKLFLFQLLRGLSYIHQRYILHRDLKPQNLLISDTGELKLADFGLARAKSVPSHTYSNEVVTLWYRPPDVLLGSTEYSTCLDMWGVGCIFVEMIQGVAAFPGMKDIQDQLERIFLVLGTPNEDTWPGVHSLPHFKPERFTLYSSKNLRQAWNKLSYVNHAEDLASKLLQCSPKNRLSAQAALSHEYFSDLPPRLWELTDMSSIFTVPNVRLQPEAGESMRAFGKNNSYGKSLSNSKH

On to `CCN1CCN(Cc2ccc(NC(=O)c3ccc(C)c(/C=C/c4cnc5[nH]ccc5c4OC)c3)cc2C(F)(F)F)CC1`, for which the inhibition came out at 0.5% in assay [1] and 20% in [2].
As for `CCN1CCN(Cc2ccc(NC(=O)c3ccc(C)c(Oc4ccnc5[nH]ccc45)c3)cc2C(F)(F)F)CC1`, the figures for the inhibition in assay [3], in assay [5] and in [7] were 8%, -2.3% and 0.6%, respectively. The compound also displayed a residual activity in assay [4] of 0.95%. Also, the inhibition entry in assay [6] is “inactive”.
Consider `CNc1cc(Oc2cc(C(=O)Nc3cc(N4CCN(C)CC4)cc(C(F)(F)F)c3)ccc2C)ncn1`, for which the inhibition in assay [8] is 6%; in assay [9] it was -2.9%; in assay [10], 16.6%; in [11] it was -0.8%; in [12], -9.9%.
